# ChEMBL document CHEMBL5625276, “Antascomicin B stabilizes FKBP51-Akt1 complexes as a molecular glue” (Bioorg Med Chem Lett, 2024)
# Active and inactive are the calls of the source. No cut-off for these calls is given here.
# Tests used:
# [1] = biological target: T1, Peptidyl-prolyl cis-trans isomerase FKBP5 (Homo sapiens, UniProt Q13451); test: Binding affinity to human FKBP51 FK1 domain expressed in Escherichia coli BL21 DE3 Gold assessed as dissociation constant incubated for 30 mins by competitive fluorescence polarization assay
# T1 sequence (Q13451 whole entry): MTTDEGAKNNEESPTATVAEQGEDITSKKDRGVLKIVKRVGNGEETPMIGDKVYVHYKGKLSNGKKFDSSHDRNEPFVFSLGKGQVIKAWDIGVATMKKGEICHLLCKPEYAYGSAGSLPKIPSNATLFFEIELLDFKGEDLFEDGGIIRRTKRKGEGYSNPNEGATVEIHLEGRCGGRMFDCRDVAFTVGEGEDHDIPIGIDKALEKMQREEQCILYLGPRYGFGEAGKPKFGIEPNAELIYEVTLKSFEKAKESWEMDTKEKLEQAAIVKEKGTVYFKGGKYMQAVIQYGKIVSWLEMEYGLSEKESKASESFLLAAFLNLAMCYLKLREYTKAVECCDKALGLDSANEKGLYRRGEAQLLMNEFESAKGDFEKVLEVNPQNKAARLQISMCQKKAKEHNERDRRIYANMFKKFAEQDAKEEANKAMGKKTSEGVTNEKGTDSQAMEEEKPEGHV
# [2] = system: HEK293T; test: Stabilization of FLAG tagged human FKBP51 P120pBpa incorporation mutant/human Akt complex in HEK293T cells assessed as induction of photocrosslinking adduct formation at 1 uM pretreated with compound followed by UV irradiation for 30 mins by immunoprecipitation based Western blot analysis; type: cell-based
# [3] = biological target: Peptidyl-prolyl cis-trans isomerase FKBP1A (Homo sapiens, UniProt P62942); test: Binding affinity to human FKBP12 expressed in Escherichia coli BL21 DE3 Gold assessed as dissociation constant incubated for 30 mins by competitive fluorescence polarization assay
# Peptidyl-prolyl cis-trans isomerase FKBP1A, sequence (P62942 whole entry): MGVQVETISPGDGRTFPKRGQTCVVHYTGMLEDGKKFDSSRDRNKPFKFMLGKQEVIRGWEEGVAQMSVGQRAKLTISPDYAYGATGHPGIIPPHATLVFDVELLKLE
# [4] = biological target: Peptidyl-prolyl cis-trans isomerase FKBP1B (Homo sapiens, UniProt P68106); test: Binding affinity to human FKBP12.6 expressed in Escherichia coli BL21 DE3 Gold assessed as dissociation constant incubated for 30 mins by competitive fluorescence polarization assay
# Peptidyl-prolyl cis-trans isomerase FKBP1B, sequence (P68106 whole entry, the tested form may be a part): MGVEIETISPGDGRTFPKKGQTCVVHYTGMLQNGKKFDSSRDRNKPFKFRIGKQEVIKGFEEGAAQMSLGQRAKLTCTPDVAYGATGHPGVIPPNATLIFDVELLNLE
# [5] = biological target: T2, Peptidyl-prolyl cis-trans isomerase FKBP4 (Homo sapiens, UniProt Q02790); test: Binding affinity to human FKBP52 FK1 domain expressed in Escherichia coli BL21 DE3 Gold assessed as dissociation constant incubated for 30 mins by competitive fluorescence polarization assay
# T2 sequence (Q02790 whole entry): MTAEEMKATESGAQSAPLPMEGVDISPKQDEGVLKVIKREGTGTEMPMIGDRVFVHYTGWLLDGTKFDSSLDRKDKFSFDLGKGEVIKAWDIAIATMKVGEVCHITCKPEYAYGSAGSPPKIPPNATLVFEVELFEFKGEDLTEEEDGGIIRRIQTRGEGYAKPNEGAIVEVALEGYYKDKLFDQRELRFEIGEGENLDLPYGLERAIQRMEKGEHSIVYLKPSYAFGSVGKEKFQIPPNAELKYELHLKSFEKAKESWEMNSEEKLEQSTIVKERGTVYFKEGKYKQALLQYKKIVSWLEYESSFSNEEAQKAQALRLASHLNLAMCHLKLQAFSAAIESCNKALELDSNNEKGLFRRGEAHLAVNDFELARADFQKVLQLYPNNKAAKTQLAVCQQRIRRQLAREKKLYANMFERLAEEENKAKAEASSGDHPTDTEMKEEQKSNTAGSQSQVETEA
# [6] = system: HEK293T; test: Stabilization of FLAG tagged human FKBP51 K52pBpa incorporation mutant/human Akt complex in HEK293T cells assessed as increase in photocrosslinking at 1 uM pretreated with compound followed by UV irradiation for 30 mins by immunoprecipitation based Western blot analysis; type: cell-based
# [7] = system: HEK293T; test: Stabilization of FLAG tagged human FKBP51 K52pBpa incorporation mutant/human Akt complex in HEK293T cells assessed as increase in Akt1 coimmunoprecipitation at 1 uM in absence of UV irradiation by immunoprecipitation based Western blot analysis; type: cell-based
# [8] = system: HEK293T; test: Stabilization of FLAG-tagged wild type human FKBP51/human Akt complex in HEK293T cells assessed as increase in Akt co-immunoprecipitation at 1 uM by Western blot analysis; type: cell-based
# [9] = system: HEK293T; test: Stabilization of FLAG-tagged human FKBP51 K52pBpa incorporation mutant/wild type Akt in HEK293T cells assessed as photocrosslinking adduct formation at 1 uM pretreated with compound followed by UV irradiation for 30 mins by immunoprecipitation based Western blot analysis; type: cell-based
# [10] = system: HEK293T; test: Stabilization of FLAG tagged human FKBP51 P120pBpa incorporation mutant/human Akt complex in HEK293T cells assessed as increase in photocrosslinking at 1 uM pretreated with compound followed by UV irradiation for 30 mins by immunoprecipitation based Western blot analysis; type: cell-based
# [11] = system: HEK293T; test: Stabilization of FLAG tagged human FKBP51 P120pBpa incorporation mutant/human Akt complex in HEK293T cells assessed as increase in Akt1 coimmunoprecipitation at 1 uM in absence of UV irradiation by immunoprecipitation based Western blot analysis; type: cell-based
# [12] = system: HEK293T; test: Stabilization of FLAG tagged human FKBP51 E75pBpa incorporation mutant/human Akt complex in HEK293T cells assessed as increase in photocrosslinking pretreated with compound followed by UV irradiation by immunoprecipitation based Western blot analysis; type: cell-based
# [13] = system: HEK293T; test: Stabilization of FLAG tagged human FKBP51 N74pBpa incorporation mutant/human Akt complex in HEK293T cells assessed as increase in photocrosslinking pretreated with compound followed by UV irradiation by immunoprecipitation based Western blot analysis; type: cell-based
# [14] = system: HEK293T; test: Stabilization of FLAG-tagged human HSP90 binding incompetent FKBP51 K352A/R356A mutant/human Akt complex in HEK293T cells assessed as increase in Akt co-immunoprecipitation at 1 uM by Western blot analysis; type: cell-based
# [15] = system: HEK293T; test: Stabilization of FLAG-tagged human FKBP51 K52pBpa incorporation mutant/human Akt S473A mutant in HEK293T cells assessed as photocrosslinking adduct formation at 1 uM pretreated with compound followed by UV irradiation for 30 mins by immunoprecipitation based Western blot analysis; type: cell-based
# [16] = system: HEK293T; test: Stabilization of FLAG-tagged human FKBP51 K52pBpa incorporation mutant/human Akt S473D mutant in HEK293T cells assessed as photocrosslinking adduct formation at 1 uM pretreated with compound followed by UV irradiation for 30 mins by immunoprecipitation based Western blot analysis; type: cell-based
# [17] = system: HEK293T; test: Stabilization of FLAG-tagged human FKBP51 K52pBpa incorporation mutant/human Akt T308A mutant in HEK293T cells assessed as photocrosslinking adduct formation at 1 uM pretreated with compound followed by UV irradiation for 30 mins by immunoprecipitation based Western blot analysis; type: cell-based
# [18] = system: HEK293T; test: Stabilization of FLAG-tagged human FKBP51 K52pBpa incorporation mutant/human Akt T308D mutant in HEK293T cells assessed as photocrosslinking adduct formation at 1 uM pretreated with compound followed by UV irradiation for 30 mins by immunoprecipitation based Western blot analysis; type: cell-based
# [19] = system: HEK293T; test: Stabilization of FLAG-tagged human FKBP51 K52pBpa incorporation mutant/human Akt T308A/S473A mutant in HEK293T cells assessed as photocrosslinking adduct formation at 1 uM pretreated with compound followed by UV irradiation for 30 mins by immunoprecipitation based Western blot analysis; type: cell-based
Kd [1] [nM],Kd [3] [nM],Kd [4] [nM],Kd [5] [nM],SMILES,Activity [2],Activity [6],Activity [7],Activity [8],Activity [9],Activity [10],Activity [11],Activity [12],Activity [13],Activity [14],Activity [15],Activity [16],Activity [17],Activity [18],Activity [19]
75.9,,,,C=CC[C@@H]1/C=C(\C)C[C@H](C)C[C@H](OC)[C@H]2O[C@@](O)(C(=O)C(=O)N3CCCC[C@H]3C(=O)O[C@H](/C(C)=C/[C@@H]3CC[C@@H](O)[C@H](OC)C3)[C@H](C)[C@@H](O)CC1=O)[C@H](C)C[C@@H]2OC [TACROLIMUS ANHYDROUS],inactive,,,,,,,,,,,,,,
6.7,0.03,0.38,1.2,C[C@@H]1/C=C/CC/C=C/C(=O)[C@H](C)[C@@H]2CC[C@@H](C)[C@@](O)(O2)C(=O)C(=O)N2CCCC[C@H]2C(=O)O[C@H]([C@H](C)C[C@@H]2CC[C@@H](O)[C@H](O)[C@H]2O)CC1,Active,Active,Active,Active,Active,Active,Active,Active,Active,Active,Active,Active,Active,Active,Active
8.5,,,12,CO[C@H]1C[C@@H]2CC[C@@H](C)[C@@](O)(O2)C(=O)C(=O)N2CCCC[C@H]2C(=O)O[C@H]([C@H](C)C[C@@H]2CC[C@@H](O)[C@H](OC)C2)CC(=O)[C@H](C)/C=C(\C)[C@@H](O)[C@@H](OC)C(=O)[C@H](C)C[C@H](C)/C=C/C=C/C=C/1C [SIROLIMUS],inactive,,,,,,,,,,,,,,
